# Columns and labels:
# [1] = tested on: PML-RAR expressing leukemic cells; assay: survival of mice suffering from acute promyelocytic leukemia; type: in vivo
# Method: Mice that developed leukemia after inoculation with PML-RAR expressing cells were sacrificed. Single-cell suspensions of spleenocytes were prepared, and secondary recipient mice were reinoculated with 10^7 cells.
# The numbers in parentheses indicate the number of mice in the representative experiment shown.
# [2] = tested on: primary AML blasts from AML patients; assay: ex vivo differentiation, viability and apoptosis of leukemic blasts; type: cell-based, human; details: for myeloid differentiation: M0, M2 and M4 FAB subtypes
# Method: Each point represents the mean of a set of data determined in triplicate (Example 15). VPA may cause synergistic therapeutic responses.
# (§1) Cases were classified according to the French-American-British (FAB) classification (Bennett et al., Ann Intern Med 103, 1985). Cytogenetic analysis and RT-PCR tests were performed to rule out the presence of the APL associated fusion genes according to standard methods as described (Mandelli et al., Blood 90, 1997; Mancini et al., Br J Haematol. 91, 1995; Grimwade et al., Blood 90, 1999).
# [3] = tested on: MDA-MB468 breast carcinoma cells; assay: MTT cell viability assay; type: cell-based, Human
# Method: (§2) Human MDA-MB468, MDA-MB453 and SKBR3 breast carcinoma cells and A431 squamous cell carcinoma cells were maintained in Dulbecco's modified Eagle's medium (DMEM, BioWhittaker, Verviers, Belgium) supplemented with 10% heat inactivated fetal bovine serum (FBS), 2 mM L-glutamine, 100 units/ml penicillin, and 100 μg/ml streptomycin.
# (§3) Tumor cells were seeded in 96 well plates at a density of 1×10^4 cells/well in normal growth medium. […] Control cells were grown in the absence of valproic acid or antibodies. 10 μl of 10 mg/ml 3-(4,5-dimethylthiazole-2-yl)-2,5 diphenyltetrazolium bromide (MTT) (Sigma, Deisenhofen, Germany) in PBS were added to each well and the cells were incubated for another 3 h. Cells were lysed by the addition of 90 μl of lysis buffer (20% SDS in 50% dimethyl formamide, pH 4.7). After solubilization of the formazan product, the absorption at 590 nm was determined in a microplate reader (Dynatech, Denkendorf, Germany) and the relative amount of viable cells in comparison to cells cultured without the addition of valproic acid or antibodies was calculated.
# [4] = tested on: MDA-MB453 breast carcinoma cells; assay: MTT cell viability assay; type: cell-based, Human; details: 70 h
# Method: as §2, §3
# [5] = tested on: MT450 breast cancer cells; assay: MT450 rat breast cancer model, subcutaneous tumor growth and lung metastasis; type: in vivo
# Method: MT450 cells were grown in DMEM/W10% FCS medium and tested for absence of mycoplasms just prior to injection. Cells were washed twice in PBS and suspended to a density of 5×10^6 cells per ml of PBS. 5×10^5 cells in 0.1 ml of PBS were injected into each rat. […] Rats were left to grow primary tumors for 21 days. […] The solution was sterile filtered. The compound was applied by i.p. injection. […] Two doses per day were applied. Control animals received equal amounts of a sterile isotonic sodium chloride solution.
# The experiment was terminated when tumor size in one of the rats of the control group had reached the legal limit of 50 mm. Necropsy at that time was performed on all rats of the experiment to assess lung metastasis. […] Metastasis was also found in 7 out of 8 VPA-treated rats. However, size and number of metastases were much smaller compared to NaCl-treated rats. A dose finding experiment had shown that the chosen dosage protocol lead to high initial serum levels (e.g. 3.6 mM at 1 hour after i.p. injection) which rapidly dropped (e.g. 0.25 mM at 4 hours after i.p. injection) below those levels which are maintained during therapy of epilepsy in human.
# Kasumi-1 cells = assay: viability, cell cycle and myeloid differentiation (morphology, NBT dye reduction); type: cell-based, human
# Method: Cell numbers were evaluated and quantified by direct cell counting (trypan blue dye exclusion method) using a hematocytometer chamber and light microscopy. Morphological examination was performed by Wright-Giemsa stained cytospins; nitroblue tetrazolium (NBT) dye reduction assay, respectively. Each point represents the mean of a set of data determined in triplicate (Example 15).
# as §1
# [6] = tested on: DU-145 prostate cancer cells; assay: SRB-assay, reduction in total cellular biomass; type: cell-based, human
# Method: (§4) The reduction in cellular biomass was measured by SRB-assay. For this assay cells were seeded in 96 well culture dishes at densities between 3000 and 8000 cells per well. […] Cultures were fixed with cold TCA producing a final TCA concentration of 10%. After 1 hour of incubation at 4° C. the cells were washed five times with water and air dried. Fixed cells were stained for 30 minutes with 0,4% (wt/vol) Sulforhodamine B (SRB) dissolved in 1% acetic acid and washed four times with 1% acetic acid to remove unbound dye. After air drying bound dye was solubilized with 10 mM unbuffered Tris base (pH 10,5) for 5 minutes. Optical densities were read on a Titertek Multiskan Plus spectrophotometric plate reader at 550 nm. Six test wells for each dose-response were set in parallel with 12 growth control wells per cell line. A measure of the cell population density at time 0 (To; the time at which the drug was added) was also made from 12 extra reference wells of cells fixed with TCA just prior to drug addition to the test plates. Background OD of complete medium with 5% FBS fixed and stained as described above was also determined in 12 separate wells. From the unprocessed OD data from each microtiter plate the background OD measurements (i.e. OD of complete medium plus stain and OD of cells at T0) were subtracted thus giving the reduction of cellular biomass of the cells.
# (§5) The effect on the reduction in total cellular biomass was measured by SRB-assay (see example 1 for assay and read-out procedure details).
# (§6) Results using MCF-7 estrogen-dependent breast cancer cells are presented in FIG. 18 and using DU-145 prostate cancer cells in FIG. 19. […] The effect on cell growth was measured by SRB-assay as described in example 1.
# [7] = tested on: MCF-7 estrogen-dependent breast cancer cells; assay: SRB-assay, reduction in total cellular biomass; type: cell-based, human
# Method: as §4, §5, §6
# [8] = combination of VPA plus RA compared to VPA or RA alone
# [9] = VPA in combination with 100 nM 1α,25 Dihydroxyvitamin D3, 48 hours, vs either alone
structure (smiles),measurement,setting,value
"CCCC(CCC)C(=O)O [VPA, 2-propylpentanoic acid]","leukemic blasts in peripheral blood, bone marrow, spleen","[1]; combination of retinoic acid and VPA, entire duration of the treatment",no leukemic blasts were observed
same,survival of leukemic mice,[1]; combination of retinoic acid pellet and VPA 400 mg/kg I.P. every 12 hours,greatest extension of survival
same,survival of leukemic mice,"[1]; single agent: retinoic acid pellets subcutaneously, VPA 400 mg/kg I.P. every 12 hours",significantly extended survival
same,myeloid differentiation,[2]; VPA as a single agent,partial myeloid differentiation
same,positive cells in the NBT dye reduction assay,[2]; VPA in combination with RA,up to 65%
same,myeloid differentiation of blasts from primary or relapsed AMLs,"[2]; VPA in combination with RA, 3 and 2 cases studied",induced myeloid differentiation
same,myeloid differentiation,[2]; VPA in combination with RA,complete and thus synergistic myeloid differentiation
same,induction of apoptosis,[2]; [8],"strongly enhanced, often in a synergistic fashion"
same,"apoptosis of AML blasts (FACS, propidium-iodide)","[2]; single agent, 4 cases tested",effective in inducing apoptosis
same,"cell viability, combination treatment","[3]; 3 mM VPA + 2 μg/ml c225, 70 h",synergistic reduction of cell viability
same,cell viability,"[3]; single reagent, 70 h, valproic acid 3 mM, c225 2 μg/ml",inhibit the viability
same,"cell viability, combination treatment",[4]; 3 mM VPA + 2 μg/ml Herceptin,synergistic reduction of cell viability
same,cell viability,"[4]; single reagent, valproic acid 3 mM, Herceptin 2 μg/ml",inhibit the viability
same,size and number of metastases compared to NaCl-treated rats,"[5]; 1.25 mmol VPA per kg BW i.p., two doses per day",much smaller
same,growth of the primary tumors (tumor volume),"[5]; 1.25 mmol VPA per kg BW i.p., two doses per day, vs sodium chloride solution",delays tumor expansion
same,rats with lung metastasis at necropsy,"[5]; VPA-treated rats, 1.25 mmol/kg i.p. twice daily, all rats of the control group showed metastasis",7 out of 8
same,myeloid differentiation,Kasumi-1 cells; VPA as a single agent,partial myeloid differentiation
same,myeloid differentiation,Kasumi-1 cells; VPA in combination with RA,complete and thus synergistic myeloid differentiation
same,positive cells in the NBT dye reduction assay,Kasumi-1 cells; VPA in combination with RA,up to 65%
same,viability,Kasumi-1 cells; VPA in combination with RA,additive effect
same,cell cycle analysis,Kasumi-1 cells; [8],enhanced cell cycle shift into G1 arrest
same,reduction of cellular biomass,"[6]; 1 mM VPA in combination with lower concentrations of cis Platinum, 48 hours",synergistic reduction of cellular biomass
same,reduction in cellular biomass,[6]; [9],at least additive reduction in cellular biomass
same,reduction in cellular biomass,"[7]; 0.75 mM VPA in combination with Paclitaxel, 48 hours, compared to either alone",clear additive reduction in cellular biomass
same,effect of the combination treatment,"[7]; VPA in combination with 100 nM 1α,25 Dihydroxyvitamin D3, 48 hours",slight synergistic effect
same,reduction in cellular biomass,[7]; [9],at least additive reduction in cellular biomass
